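Tested at 5 concentrations; 48 h exposure; 96-well plates; endpoints linearly interpolated, else capped at highest concentration. TGI denotes the concentration required for complete inhibition of growth.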
What was measured:
Assay in all cases: growth of human tumour cells (NCI), 48 h
SR leukemia = system: SR leukemia
MDA-MB-231 breast = system: MDA-MB-231 breast
NCI-H460 lung = system: NCI-H460 lung
KM12 colon = system: KM12 colon
HS 578T breast = system: HS 578T breast
MDA-MB-435 = system: MDA-MB-435
UACC-62 melanoma = system: UACC-62 melanoma
NCI/ADR-RES ovarian = system: NCI/ADR-RES ovarian
A498 renal = system: A498 renal
786-0 renal = system: 786-0 renal
DU-145 prostate = system: DU-145 prostate
HCC-2998 colon = system: HCC-2998 colon
RPMI-8226 leukemia = system: RPMI-8226 leukemia
MDA-N = system: MDA-N
U251 CNS = system: U251 CNS
OVCAR-8 ovarian = system: OVCAR-8 ovarian
PC-3 prostate = system: PC-3 prostate
EKVX NSCLC = system: EKVX NSCLC
HCT-116 colon = system: HCT-116 colon
NCI-H23 lung = system: NCI-H23 lung
HCT-15 colon = system: HCT-15 colon
HT29 colon = system: HT29 colon
SK-MEL-28 melanoma = system: SK-MEL-28 melanoma
HOP-62 NSCLC = system: HOP-62 NSCLC
SK-MEL-2 melanoma = system: SK-MEL-2 melanoma
MOLT-4 leukemia = system: MOLT-4 leukemia
CAKI-1 renal = system: CAKI-1 renal
IGROV1 ovarian = system: IGROV1 ovarian
SF-268 CNS = system: SF-268 CNS
A549 NSCLC = system: A549 NSCLC
MALME-3M melanoma = system: MALME-3M melanoma
OVCAR-5 ovarian = system: OVCAR-5 ovarian
K-562 leukemia = system: K-562 leukemia
SK-OV-3 ovarian = system: SK-OV-3 ovarian
CCRF-CEM leukemia = system: CCRF-CEM leukemia
OVCAR-4 ovarian = system: OVCAR-4 ovarian
UACC-257 melanoma = system: UACC-257 melanoma
TK-10 renal = system: TK-10 renal
BT-549 breast = system: BT-549 breast
HL-60(TB) leukemia = system: HL-60(TB) leukemia
HOP-92 NSCLC = system: HOP-92 NSCLC
LOX IMVI melanoma = system: LOX IMVI melanoma
ACHN renal = system: ACHN renal
SF-295 CNS = system: SF-295 CNS
SNB-19 CNS = system: SNB-19 CNS
NCI-H522 lung = system: NCI-H522 lung
SW-620 colon = system: SW-620 colon
UO-31 renal = system: UO-31 renal
MCF7 breast = system: MCF7 breast
M14 melanoma = system: M14 melanoma
OVCAR-3 ovarian = system: OVCAR-3 ovarian
SN12C renal = system: SN12C renal
RXF 393 renal = system: RXF 393 renal
SF-539 CNS = system: SF-539 CNS
SK-MEL-5 melanoma = system: SK-MEL-5 melanoma
NCI-H226 lung = system: NCI-H226 lung
COLO 205 colon = system: COLO 205 colon

In the case of `COc1nc(SC)nc2c1C(O)n1c(nc3ccccc31)S2` (stereo not given), the TGI (SR leukemia) is reported as > 100 µM, the TGI (MDA-MB-231 breast) is reported as > 100 µM and the TGI (NCI-H460 lung) is reported as > 100 µM. The TGI (KM12 colon) was > 100 µM, the TGI (HS 578T breast) was 50.7 µM and the TGI (MDA-MB-435) was > 100 µM. For the same compound, the TGI (UACC-62 melanoma) was 44.7 µM, the TGI (NCI/ADR-RES ovarian) was 94.9 µM and the TGI (A498 renal) was 39.4 µM. The TGI (786-0 renal) was 24.6 µM, the TGI (DU-145 prostate) was > 100 µM and the TGI (HCC-2998 colon) was > 100 µM. For the same compound, the TGI (RPMI-8226 leukemia) was > 100 µM, the TGI (MDA-N) was > 100 µM and the TGI (U251 CNS) was 96.8 µM. The TGI (OVCAR-8 ovarian) was 80.9 µM, the TGI (PC-3 prostate) was > 100 µM and the TGI (EKVX NSCLC) was > 100 µM. For the same compound, the TGI (HCT-116 colon) was 30.4 µM, the TGI (NCI-H23 lung) was 95.4 µM and the TGI (HCT-15 colon) was > 100 µM. The TGI (HT29 colon) was > 100 µM, the TGI (SK-MEL-28 melanoma) was > 100 µM and the TGI (HOP-62 NSCLC) was 37.4 µM. For the same compound, the TGI (SK-MEL-2 melanoma) was > 100 µM, the TGI (MOLT-4 leukemia) was > 100 µM and the TGI (CAKI-1 renal) was > 100 µM. For the same compound, the TGI (IGROV1 ovarian) was > 100 µM, the TGI (SF-268 CNS) was > 100 µM and the TGI (A549 NSCLC) was > 100 µM. For the same compound, the TGI (MALME-3M melanoma) was > 100 µM, the TGI (OVCAR-5 ovarian) was > 100 µM and the TGI (K-562 leukemia) was > 100 µM. For the same compound, the TGI (SK-OV-3 ovarian) was 67.2 µM, the TGI (CCRF-CEM leukemia) was 22.3 µM and the TGI (OVCAR-4 ovarian) was 44.4 µM. For the same compound, the TGI (UACC-257 melanoma) was > 100 µM, the TGI (TK-10 renal) was 97.7 µM and the TGI (BT-549 breast) was > 100 µM. For the same compound, the TGI (HL-60(TB) leukemia) was 60.5 µM, the TGI (HOP-92 NSCLC) was 61.9 µM and the TGI (LOX IMVI melanoma) was > 100 µM. For the same compound, the TGI (ACHN renal) was 39.9 µM, the TGI (SF-295 CNS) was 59.6 µM and the TGI (SNB-19 CNS) was > 100 µM. It also gave a TGI (NCI-H522 lung) of 69.1 µM, a TGI (SW-620 colon) of 47.7 µM and a TGI (UO-31 renal) of 16.8 µM. The TGI (MCF7 breast) was 91.2 µM, the TGI (M14 melanoma) was > 100 µM and the TGI (OVCAR-3 ovarian) was 85.7 µM. For the same compound, the TGI (SN12C renal) was > 100 µM.
In the case of `Cc1cccc(N2C(=O)C3c4[nH]c5ccccc5c4C4CCC(C(C)(C)C)CC4C3C2=O)c1C` (stereo not given), the TGI (SR leukemia) is reported as > 100 µM, the TGI (RXF 393 renal) is reported as > 100 µM and the TGI (MDA-MB-231 breast) is reported as 42.3 µM. The TGI (NCI-H460 lung) was > 100 µM, the TGI (HS 578T breast) was > 100 µM and the TGI (MDA-MB-435) was > 100 µM. For the same compound, the TGI (UACC-62 melanoma) was > 100 µM, the TGI (NCI/ADR-RES ovarian) was > 100 µM and the TGI (A498 renal) was > 100 µM. For the same compound, the TGI (786-0 renal) was > 100 µM, the TGI (DU-145 prostate) was > 100 µM and the TGI (HCC-2998 colon) was > 100 µM. The TGI (RPMI-8226 leukemia) was > 100 µM, the TGI (MDA-N) was > 100 µM and the TGI (U251 CNS) was 83.4 µM. For the same compound, the TGI (OVCAR-8 ovarian) was > 100 µM, the TGI (PC-3 prostate) was > 100 µM and the TGI (EKVX NSCLC) was > 100 µM. The TGI (HCT-116 colon) was > 100 µM, the TGI (NCI-H23 lung) was > 100 µM and the TGI (HCT-15 colon) was > 100 µM. For the same compound, the TGI (HT29 colon) was > 100 µM, the TGI (SF-539 CNS) was > 100 µM and the TGI (HOP-62 NSCLC) was > 100 µM. For the same compound, the TGI (SK-MEL-2 melanoma) was > 100 µM, the TGI (MOLT-4 leukemia) was > 100 µM and the TGI (CAKI-1 renal) was > 100 µM. For the same compound, the TGI (IGROV1 ovarian) was > 100 µM, the TGI (A549 NSCLC) was > 100 µM and the TGI (MALME-3M melanoma) was > 100 µM. For the same compound, the TGI (OVCAR-5 ovarian) was > 100 µM, the TGI (K-562 leukemia) was > 100 µM and the TGI (SK-OV-3 ovarian) was > 100 µM. The TGI (SK-MEL-5 melanoma) was > 100 µM, the TGI (CCRF-CEM leukemia) was > 100 µM and the TGI (UACC-257 melanoma) was > 100 µM. For the same compound, the TGI (TK-10 renal) was > 100 µM, the TGI (BT-549 breast) was > 100 µM and the TGI (HL-60(TB) leukemia) was 60.4 µM. For the same compound, the TGI (HOP-92 NSCLC) was > 100 µM, the TGI (LOX IMVI melanoma) was > 100 µM and the TGI (NCI-H226 lung) was > 100 µM. The TGI (ACHN renal) was > 100 µM, the TGI (SF-295 CNS) was > 100 µM and the TGI (SNB-19 CNS) was > 100 µM. The TGI (SW-620 colon) was > 100 µM, the TGI (UO-31 renal) was > 100 µM and the TGI (MCF7 breast) was > 100 µM. For the same compound, the TGI (M14 melanoma) was > 100 µM, the TGI (OVCAR-3 ovarian) was > 100 µM and the TGI (SN12C renal) was > 100 µM. The TGI (COLO 205 colon) was > 100 µM.
In the case of `NC(Cc1ccc(OCc2ccccc2)cn1)C(=O)OCc1ccccc1` (stereo not given), the TGI (SR leukemia) is reported as > 100 µM, the TGI (RXF 393 renal) is reported as > 100 µM and the TGI (MDA-MB-231 breast) is reported as > 100 µM. The TGI (NCI-H460 lung) was > 100 µM, the TGI (KM12 colon) was > 100 µM and the TGI (HS 578T breast) was > 100 µM. The TGI (MDA-MB-435) was > 100 µM, the TGI (NCI/ADR-RES ovarian) was > 100 µM and the TGI (A498 renal) was > 100 µM. For the same compound, the TGI (786-0 renal) was > 100 µM, the TGI (DU-145 prostate) was > 100 µM and the TGI (HCC-2998 colon) was > 100 µM. The TGI (RPMI-8226 leukemia) was > 100 µM, the TGI (MDA-N) was > 100 µM and the TGI (U251 CNS) was > 100 µM. The TGI (OVCAR-8 ovarian) was > 100 µM, the TGI (PC-3 prostate) was > 100 µM and the TGI (EKVX NSCLC) was > 100 µM. The TGI (HCT-116 colon) was > 100 µM, the TGI (NCI-H23 lung) was > 100 µM and the TGI (HCT-15 colon) was > 100 µM. For the same compound, the TGI (HT29 colon) was > 100 µM, the TGI (SF-539 CNS) was > 100 µM and the TGI (SK-MEL-28 melanoma) was > 100 µM. For the same compound, the TGI (HOP-62 NSCLC) was > 100 µM, the TGI (CAKI-1 renal) was > 100 µM and the TGI (IGROV1 ovarian) was > 100 µM. For the same compound, the TGI (A549 NSCLC) was > 100 µM, the TGI (MALME-3M melanoma) was > 100 µM and the TGI (OVCAR-5 ovarian) was > 100 µM. The TGI (K-562 leukemia) was > 100 µM, the TGI (SK-MEL-5 melanoma) was > 100 µM and the TGI (CCRF-CEM leukemia) was > 100 µM. The TGI (OVCAR-4 ovarian) was > 100 µM, the TGI (UACC-257 melanoma) was > 100 µM and the TGI (TK-10 renal) was > 100 µM. For the same compound, the TGI (BT-549 breast) was > 100 µM, the TGI (HL-60(TB) leukemia) was > 100 µM and the TGI (HOP-92 NSCLC) was > 100 µM. The TGI (LOX IMVI melanoma) was > 100 µM, the TGI (NCI-H226 lung) was > 100 µM and the TGI (ACHN renal) was > 100 µM. For the same compound, the TGI (SF-295 CNS) was > 100 µM, the TGI (SNB-19 CNS) was > 100 µM and the TGI (NCI-H522 lung) was > 100 µM. For the same compound, the TGI (SW-620 colon) was > 100 µM, the TGI (UO-31 renal) was > 100 µM and the TGI (MCF7 breast) was > 100 µM. For the same compound, the TGI (OVCAR-3 ovarian) was > 100 µM, the TGI (SN12C renal) was > 100 µM and the TGI (COLO 205 colon) was > 100 µM.

From PubChem BioAssay (NCI)
